Measured values taken from paper PMC6524651 (Cell chemical biology, 2018).

Legend:
SUMOylation = details: read-out: IC50 in SUMOylation biochemical assays; among 780 assays; ref PubChem; cited from earlier work
RORγ = details: read-out: IC50 in cellular assay of RORγ; among 780 assays; ref PubChem; cited from earlier work
SUMO E1 in HCT-116 cells = SUMO E1 in HCT-116 cells (Homo sapiens, UniProt Q9UBT2); experiment: Western blot of Ubc9•SUMO thioester formation in cells; details: HCT-116 cell lysates
Chain of SUMO E1 in HCT-116 cells (Q9UBT2 whole entry, one chain of several): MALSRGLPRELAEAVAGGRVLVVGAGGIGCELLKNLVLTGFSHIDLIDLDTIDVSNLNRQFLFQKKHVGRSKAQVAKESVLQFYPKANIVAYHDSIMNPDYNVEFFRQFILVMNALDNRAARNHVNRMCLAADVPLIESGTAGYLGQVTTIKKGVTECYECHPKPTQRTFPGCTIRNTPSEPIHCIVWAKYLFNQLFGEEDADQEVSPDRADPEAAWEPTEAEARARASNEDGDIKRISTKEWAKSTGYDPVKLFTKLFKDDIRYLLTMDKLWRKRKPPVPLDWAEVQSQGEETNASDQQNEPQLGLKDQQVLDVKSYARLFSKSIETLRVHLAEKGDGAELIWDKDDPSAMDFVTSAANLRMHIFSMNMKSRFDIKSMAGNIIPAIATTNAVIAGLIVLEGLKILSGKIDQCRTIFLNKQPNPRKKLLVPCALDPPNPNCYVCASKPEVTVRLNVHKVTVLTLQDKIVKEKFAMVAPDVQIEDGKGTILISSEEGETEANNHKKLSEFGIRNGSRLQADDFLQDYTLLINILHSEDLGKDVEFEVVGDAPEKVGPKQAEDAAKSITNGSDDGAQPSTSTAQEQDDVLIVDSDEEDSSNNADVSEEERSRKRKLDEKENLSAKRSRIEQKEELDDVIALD

[1] = test system: cellular proteins of HCT116 cells; experiment: Target profiling by pull-down with alkyne-containing probe; assay type: cell-based, human; details: preliminary profiling, 2 μM
[2] = test system: ubiquitylation (Ubc13-mediated poly-ubiquitylation); experiment: Ubc13-mediated poly-ubiquitylation assay; assay type: biochemical, human; details: same condition as SUMOylation assay
HCT-116 cells = experiment: Apoptosis by flow cytometry; assay type: cell-based, human; details: 10 μM for 20 h
[3] = target: SUMO E1 (SAE) adenylation step (Homo sapiens, UniProt Q9UBT2); experiment: ATP:PPi isotope exchange assay of the adenylation step
Chain of SUMO E1 (SAE) adenylation step (Q9UBT2 whole entry, one chain of several): as above

[4] = target: SUMO activating enzyme (SAE, SUMO E1) (Homo sapiens, UniProt Q9UBT2); experiment: AlphaScreen in vitro SUMOylation assay; assay type: biochemical
Chain of SUMO activating enzyme (SAE, SUMO E1) (Q9UBT2 whole entry, one chain of several): as above

HCT-116 cell xenograft = experiment: HCT116 xenograft in plasma esterase-deficient SCID mice; assay type: in vivo, mouse (Es1e/SCID)
SAE2 in HCT116 cells [5] = target: T1, SAE2 in HCT116 cells (Homo sapiens, UniProt Q9UBT2); experiment: Pulse-chase assay of SAE2 degradation
T1 sequence (Q9UBT2 whole entry, one chain of several): as above

[6] = test system: miR-34b and c-Myc in lymphoma (Raji) and colorectal cancer (HCT116) cells; experiment: RT-qPCR and Western blot of miR-34b and c-Myc in cancer cell lines; assay type: cell-based, human
SUMO E1 WT = SUMO E1 WT (Homo sapiens, UniProt Q9UBT2); assay type: biochemical; details: 0.25 μM E1 WT, 15 minutes at 37 °C
Chain of SUMO E1 WT (Q9UBT2 whole entry, one chain of several): as above

SAE2 = SAE2 (Homo sapiens, UniProt Q9UBT2); experiment: Western blot of SAE2 level and modification in cells with or without MG132; details: MG132 2 hours prior, 2 hours of COH000 treatment
Chain of SAE2 (Q9UBT2 whole entry, one chain of several): as above

[7] = target: T2, Nedd8 activating enzyme in HCT-116 cells (Homo sapiens, UniProt Q8TBC4); experiment: Western blot of Nedd8•Ubc12 thioester formation in cells; assay type: cell-based; details: HCT-116 cell lysates
T2 sequence (Q8TBC4 1-463): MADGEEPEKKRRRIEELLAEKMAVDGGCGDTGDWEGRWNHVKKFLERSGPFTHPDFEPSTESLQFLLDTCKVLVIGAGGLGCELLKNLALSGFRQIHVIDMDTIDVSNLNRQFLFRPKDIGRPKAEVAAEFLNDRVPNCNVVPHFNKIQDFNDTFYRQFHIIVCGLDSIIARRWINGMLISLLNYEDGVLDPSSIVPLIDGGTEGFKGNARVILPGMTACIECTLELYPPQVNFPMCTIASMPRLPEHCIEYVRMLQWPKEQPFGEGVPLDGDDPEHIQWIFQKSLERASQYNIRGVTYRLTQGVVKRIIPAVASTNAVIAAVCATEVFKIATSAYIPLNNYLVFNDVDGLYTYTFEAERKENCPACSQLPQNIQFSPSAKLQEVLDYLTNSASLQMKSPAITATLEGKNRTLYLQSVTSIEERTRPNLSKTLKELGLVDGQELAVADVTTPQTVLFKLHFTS
T2 sequence (Q13564 1-534 partner): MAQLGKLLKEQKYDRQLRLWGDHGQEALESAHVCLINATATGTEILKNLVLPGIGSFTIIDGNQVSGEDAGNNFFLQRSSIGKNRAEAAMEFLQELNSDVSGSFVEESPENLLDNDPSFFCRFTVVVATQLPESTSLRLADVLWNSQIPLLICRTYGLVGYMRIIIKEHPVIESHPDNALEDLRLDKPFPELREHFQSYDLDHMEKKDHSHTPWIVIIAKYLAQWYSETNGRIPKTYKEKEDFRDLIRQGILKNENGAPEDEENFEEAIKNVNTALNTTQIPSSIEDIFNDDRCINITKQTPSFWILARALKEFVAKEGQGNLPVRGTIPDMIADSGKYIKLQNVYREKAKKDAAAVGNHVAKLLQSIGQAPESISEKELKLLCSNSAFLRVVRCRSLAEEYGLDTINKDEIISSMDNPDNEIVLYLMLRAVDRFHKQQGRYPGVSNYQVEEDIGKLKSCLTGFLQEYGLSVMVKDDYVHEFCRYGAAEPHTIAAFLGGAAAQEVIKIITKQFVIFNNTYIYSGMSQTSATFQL

[8] = test system: primary colorectal tumor cells from PDX; experiment: Primary colorectal tumor cells from patient-derived xenograft tissues; assay type: cell-based, human
SUMO E1 [9] = target: T3, SUMO E1 (Homo sapiens, UniProt Q9UBT2); experiment: Dialysis of inhibited SUMO E1 followed by SUMOylation assay; assay type: biochemical; details: no enzyme activity up to 8 hours of dialysis
T3 sequence (Q9UBT2 whole entry, one chain of several): as the sequence (Q9UBT2 whole entry, one chain of several) above

[10] = test system: SUMOylation in HCT-116 cells; experiment: Western blot of SUMOylated proteins; assay type: cell-based, human; details: 18 hours treatment
SUMO E1 [11] = target: T3, SUMO E1; experiment: Differential scanning fluorimetry of SUMO E1; details: SUMO E1 fully inhibited by COH000
[12] = target: SAE2 (SUMO E1) Cys residues (Homo sapiens, UniProt Q9UBT2); experiment: LC-MS/MS analysis of pepsin digest of SUMO E1 inhibited by COH000; assay type: binding
Chain of SAE2 (SUMO E1) Cys residues (Q9UBT2 whole entry, one chain of several): as the sequence (Q9UBT2 whole entry, one chain of several) above

SUMO E1 C30S mutant = target: T4, SUMO E1 C30S mutant (Homo sapiens, UniProt Q9UBT2, C30S); assay type: biochemical; details: 0.25 μM E1 C30S, 15 minutes at 37 °C
T4 sequence (Q9UBT2 1-640 C30S): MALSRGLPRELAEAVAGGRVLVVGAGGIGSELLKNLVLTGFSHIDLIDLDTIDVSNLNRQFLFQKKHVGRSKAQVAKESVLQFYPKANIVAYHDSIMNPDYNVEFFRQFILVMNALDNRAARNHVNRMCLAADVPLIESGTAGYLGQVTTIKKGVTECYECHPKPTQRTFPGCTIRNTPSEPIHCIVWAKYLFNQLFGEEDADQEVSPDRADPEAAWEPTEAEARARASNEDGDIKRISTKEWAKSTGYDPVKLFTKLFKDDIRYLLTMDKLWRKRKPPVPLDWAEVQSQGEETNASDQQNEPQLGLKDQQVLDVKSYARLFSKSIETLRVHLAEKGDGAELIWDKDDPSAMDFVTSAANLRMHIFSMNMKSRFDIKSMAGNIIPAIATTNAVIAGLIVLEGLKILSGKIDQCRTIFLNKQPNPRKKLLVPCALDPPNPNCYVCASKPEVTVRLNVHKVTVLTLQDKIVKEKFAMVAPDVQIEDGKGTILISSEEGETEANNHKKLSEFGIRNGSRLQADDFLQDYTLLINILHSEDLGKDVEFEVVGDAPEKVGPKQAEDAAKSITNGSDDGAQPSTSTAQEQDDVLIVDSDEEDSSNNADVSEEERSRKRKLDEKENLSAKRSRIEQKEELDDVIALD
T4 sequence (Q9UBE0 1-346 partner): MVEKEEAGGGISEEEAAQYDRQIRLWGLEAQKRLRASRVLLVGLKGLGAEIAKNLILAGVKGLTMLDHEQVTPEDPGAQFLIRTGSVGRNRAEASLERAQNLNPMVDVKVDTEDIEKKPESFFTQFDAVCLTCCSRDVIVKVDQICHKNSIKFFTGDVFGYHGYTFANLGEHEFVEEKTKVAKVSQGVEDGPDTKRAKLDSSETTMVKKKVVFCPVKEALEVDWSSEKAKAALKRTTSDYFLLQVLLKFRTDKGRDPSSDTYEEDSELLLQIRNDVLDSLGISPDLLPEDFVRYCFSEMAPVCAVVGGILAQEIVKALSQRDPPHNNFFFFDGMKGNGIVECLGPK

SAE2 in HCT116 cells [13] = target: T1, SAE2 in HCT116 cells; experiment: Cellular thermal shift assay; details: 2 hours at 37°C, 42–56°C
[14] = target: T5, ubiquitin activating enzyme in HCT-116 cells (Homo sapiens, UniProt P22314); experiment: Western blot of ubiquitin•Ubc5 thioester formation in cells; assay type: cell-based; details: HCT-116 cell lysates
T5 sequence (P22314 1-1058): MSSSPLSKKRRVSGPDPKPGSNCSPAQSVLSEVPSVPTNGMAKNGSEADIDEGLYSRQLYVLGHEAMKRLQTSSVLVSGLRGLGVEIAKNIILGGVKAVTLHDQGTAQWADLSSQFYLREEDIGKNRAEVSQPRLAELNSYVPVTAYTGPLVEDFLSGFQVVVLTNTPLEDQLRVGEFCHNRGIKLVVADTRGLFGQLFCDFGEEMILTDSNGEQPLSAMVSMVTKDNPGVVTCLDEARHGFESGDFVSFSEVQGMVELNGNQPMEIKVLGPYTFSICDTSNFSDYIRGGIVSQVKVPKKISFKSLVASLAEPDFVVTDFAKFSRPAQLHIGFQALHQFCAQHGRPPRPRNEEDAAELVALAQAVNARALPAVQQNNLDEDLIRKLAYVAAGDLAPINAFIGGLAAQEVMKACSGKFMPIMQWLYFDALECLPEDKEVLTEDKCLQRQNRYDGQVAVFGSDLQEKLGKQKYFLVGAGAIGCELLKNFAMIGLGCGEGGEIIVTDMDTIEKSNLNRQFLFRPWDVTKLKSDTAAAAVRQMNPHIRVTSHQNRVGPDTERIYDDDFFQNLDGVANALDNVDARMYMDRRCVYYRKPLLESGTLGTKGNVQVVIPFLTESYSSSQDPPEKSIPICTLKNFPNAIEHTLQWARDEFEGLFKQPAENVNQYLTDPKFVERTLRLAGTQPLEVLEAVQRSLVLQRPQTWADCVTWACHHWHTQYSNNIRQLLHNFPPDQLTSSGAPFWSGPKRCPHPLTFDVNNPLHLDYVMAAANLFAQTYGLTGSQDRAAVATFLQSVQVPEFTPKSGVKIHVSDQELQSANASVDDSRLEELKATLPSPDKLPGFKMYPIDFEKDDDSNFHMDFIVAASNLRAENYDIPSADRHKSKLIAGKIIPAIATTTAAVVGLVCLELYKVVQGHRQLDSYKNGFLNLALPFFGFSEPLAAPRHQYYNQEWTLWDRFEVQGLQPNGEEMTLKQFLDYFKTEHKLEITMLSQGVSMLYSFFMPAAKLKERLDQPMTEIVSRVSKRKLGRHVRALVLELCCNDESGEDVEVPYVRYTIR

[15] = 10 mg/kg s.c. peritumoral once a day, 14 days

## C=CCC(Nc1ccccc1)C12C=CC(O1)C(C(=O)OC)=C2C(=O)OC (stereo not drawn) [CID 9549553]
SUMOylation
  IC50: < 7 µM
RORγ
  IC50: < 7 µM

## COC(=O)C1=C(C(=O)OC)C2([C@@H](Cc3ccc(C)cc3)Nc3ccccc3)C=CC1O2 (stereo partly drawn) [COH000, dimethyl 1-((R)-1-(phenylamino)-2-(p-tolyl)ethyl)7-oxabicyclo[2.2.1]hepta-2,5-diene-2,3-dicarboxylate]
SUMO E1 in HCT-116 cells
  SUMO•Ubc9 thioester formation in cells: inhibited only SUMO•Ubc9 thioester formation in a dose-dependent manner
[1]
  other targets in cells (pull-down with alkyne-containing analog probe): does not have a large number of other targets
[2]
  concentration up to which ubiquitylation was not inhibited: > 100 µM
HCT-116 cells
  apoptosis: consistently induced apoptosis
[3]; COH000 0–2 μM
  effect on SUMO adenylation (32PPi:ATP isotope exchange): inhibited SUMO adenylation
[3]; increasing concentrations of ATP or SUMO1
  effect of increasing ATP or SUMO1 on the inhibition of adenylation: not overcome with increasing concentrations of ATP or SUMO1
[4]
  IC50: ~0.2 µM
[4]; SUMOylation vs Ubc13-mediated poly-ubiquitylation
  selectivity for SUMOylation than ubiquitylation: over 500 fold
HCT-116 cell xenograft; [15]
  SAE2 levels in tumor tissues (IHC): significantly reduced SAE2 levels in tumor tissues
  apoptosis in tumor tissue (TUNEL): increased apoptosis
  c-Myc protein level in tumor (IHC): The c-Myc protein level was reduced
  tumor growth: significantly inhibited tumor growth
HCT-116 cell xenograft; COH000-treated vs vehicle-treated mice
  miR-34b level in tumor tissues: miR-34b level is higher in tumor tissues
SAE2 in HCT116 cells [5]
  degradation of SAE2 (pulse-chase): increased the degradation of SAE2
[6]; 2 days of treatment, RT-qPCR
  miR-34b expression: increased the expression of miR-34b
[6]; RT-qPCR and Western blot
  c-Myc mRNA and protein levels: reduced c-Myc mRNA and protein levels
SUMO E1 WT
  inhibition of Ubc9•SUMO thioester formation, WT enzyme: inhibited by COH000 in a dose-dependent manner
SAE2
  ubiquitylation of SAE2 in cells: increased ubiquitylation of SAE2
[7]
  NEDD8•Ubc12 thioester formation in cells: did not inhibit the homologous enzymes catalyzing ubiquitylation or NEDDylation
[8]
  cancer cell viability in primary colorectal PDX samples: decreased cancer cell viability
[8]; 48 h treatment
  apoptosis in primary colorectal PDX samples: induced apoptosis
[8]; higher c-Myc levels
  c-Myc level, samples from Patient #2 and #3: showed reduced c-Myc levels
[8]; lowest c-Myc level among the three samples
  c-Myc level, sample from Patient #1: did not show much further reduction of c-Myc level
SUMO E1 [9]
  reversibility of SUMO E1 inhibition: irreversible
[10]
  SUMOylation in cells: inhibited SUMOylation in a dose-dependent manner
SUMO E1 [11]
  thermal denaturation of SUMO E1, inhibitor bound vs unbound: higher melting temperature
[12]; full inhibition by the compound
  modification of catalytic Cys173 of SAE2: did not modify Cys173
[12]; full inhibition, >10 fold excess for > 1 h
  labeling of SAE2 Cys30 by intact mass: 100%
SUMO E1 C30S mutant
  inhibition of Ubc9•SUMO thioester formation, C30S mutant: the C30S mutant was not
SAE2 in HCT116 cells [13]
  thermal stability of SAE2 in cells (CETSA): increased the thermal stability of the enzyme in a dose dependent manner
[14]
  ubiquitin•Ubc5 thioester formation in cells: did not inhibit the homologous enzymes catalyzing ubiquitylation or NEDDylation
